Type in all cases: cell-based
Assay [1] relates to Human liver cancer cells HepG-2. The experiment in a line: Monitoring mitochondrial polarized state using fluorescent reagent JC-1 (HepG-2). The following applies: fenofibrate medium; especially about 20 minutes after the reagent was added; FIG. 3. On the procedure:
The fluorescent microscopic observation was carried out with the use of Axioplan 2 (Carl Zeiss) as a microscope, a 75-W xenon lamp as a light source, and NTE/CCD Detector MicroMAX-512BFT (Princeton Instruments) as a detector. Images were obtained and analyzed with the use of fluorescence analysis software, MetaFluor Imaging System Ver. 4.65 (Universal Imaging).
(§1) Human liver cancer cells HepG-2 were used as test cells. A liquid medium EMEM containing 100 μM nonessential amino acid, 50 units/mL penicillin, 50 μg/mL streptomycin, and 10% (v/v) FBS was prepared, at 37° C. with a CO2 concentration of 5%, to be used as a complete medium, and the cells were pre-cultured in the complete medium and then used in the testing. Fenofibrate (2-[4-(4-Chlorobenzoyl)phenoxy]-2-methylpropanoic acid isopropyl ester) was used as a lipid metabolism promoting agent. Lipid metabolism activity was evaluated at the time when 25 μM fenofibrate was added and at the time when 50 μM fenofibrate was added. […]
Following pre-culture, the test cells were removed from the petri dish, and the concentration of the test cells in the complete medium was adjusted to 2×10^6 cell/mL. […] To detect fluorescence, a set of filters that transmitted 515-565 nm and a set of filters that transmitted 575-640 nm were used. […]

For assay [2] the test system is unchanged. Kind of assay: Evaluation of lipid metabolism activity using SPR. As to conditions: 25 μM and 50 μM fenofibrate; especially about 20 minutes after the reagent was added; FIG. 2. The protocol: Measurement of SPR signals and fluorescent microscopic observation were carried out using a device having a fluorescent microscope located above living cells, which cells are a target of the measurement, and an SPR sensor located under the living cells. […] An optical system of Kretschmann configuration was used as an SPR sensor. BK7 (with a refractive index of 1.51) was used as a prism. A semiconductor laser (with a wavelength of 670 nm, an output of 3 mW, and a beam diameter of 1 mm) was used as a light source. A silicon photodiode detector was used as a detector. The measurement was carried out in the atmosphere (with 20% O2 and 0.035% CO2), unless otherwise stated.
as §1
(In general: In SPR one partner is held on a chip, and binding of the other changes the refractive index at the surface.)

Assay [3] deals with Human pancreas cancer cells MIA PaCa-2. The experiment in a line: Survival rate by counting the number of cells (trypan blue, standard method), combined use of agents. The following applies: 25 μM each agent; 48 hours after medium replacement; FIG. 12. On the procedure:
The effect of combined use of plural agents was evaluated by a method including co-culturing a test agent with the cells, and counting the number of reduced cells by apoptosis. Human pancreas cancer cells MIA PaCa-2 were used as the test cells. A cell suspension of 5×10^4 cells/mL was prepared with the use of EMEM (Eagles' minimum essential medium) containing 10% (v/v) FBS, 50 units/mL penicillin, 50 μg/mL streptomycin, and 100 μM nonessential amino acid, and 5 mL of the cell suspension was poured into each 6-cm petri dish and pre-cultured at 37° C. with the CO2 concentration of 5%. After 24 hours, either a replacement with new 5 mL EMEM (DMSO used as the solvent of the phenol component was contained at the final concentration of 0.1% (v/v)) containing 25 μM quercetin, 25 μM trans-resveratrol, or both 25 μM quercetin and 25 μM trans-resveratrol in addition to the medium, or a replacement with 5 mL EMEM containing only 0.1% (v/v) DMSO as a control was carried out, and then culturing was carried out. Forty eight hours after the medium was replaced, trypan blue staining was carried out, and then the number of cells was counted with a hemocytometer. Comparison was carried out for the respective conditions, with 100 representing the number of cells in the control.

Assay [4] shares this test system. The experiment in a line: Measurement of SPR angle, agents alone or in combination. The following applies: 25 μM each agent; 50 minutes after the administration; FIG. 13. The protocol: SPR angles were measured with the above-described SPR sensor (tilting sensor) at the temperature of 37.0° C. Likewise in the measurement of the survival rate, a cell suspension of 2×10^6 cell/mL was prepared, and 100 μL of the cell suspension was dropped onto a gold plate for SPR measurement and cultured for 20 hours at 37° C. with the CO2 concentration of 5%. After 20 hours, the plate was placed on the prism of the SPR sensor, and on the plate was filled 5 mL EMEM. Then, measurement was started. Ten minutes after the measurement was started, either a replacement with new 5 mL EMEM (DMSO used as the solvent of the phenol component was contained at a final concentration of 0.1% (v/v)) containing 25 μM quercetin, 25 μM trans-resveratrol, or both 25 μM quercetin and 25 μM trans-resveratrol, or a replacement with 5 mL EMEM containing only 0.1% (v/v) DMSO as a control was carried out, and then the measurement of the changes in SPR angle was continued for another 50 minutes.

Data on three compounds can be found in patent US20110003321A1, “Monitoring of Intercellular Mitochondorial Polarization” (Kyushu University National University Corporation, priority 2005, published 2011).

Molecules are shown by their SMILES.

With `CC(C)OC(=O)C(C)(C)Oc1ccc(C(=O)c2ccc(Cl)cc2)cc1` [fenofibrate, 2-[4-(4-Chlorobenzoyl)phenoxy]-2-methylpropanoic acid isopropyl ester], the “fluorescence intensity (JC-1) resulting from mitochondrial polarization due to activation of lipid metabolism” value in assay [1] is listed as “increase in fluorescence intensity”. In addition, in assay [2], the “changes in SPR signals resulting from mitochondrial polarization due to activation of lipid metabolism” value is “changes (−) were observed in the SPR signals”.

Regarding `O=c1c(O)c(-c2ccc(O)c(O)c2)oc2cc(O)cc(O)c12` [quercetin, Quercetin], the “survival rate (number of cells, control = 100)” value in assay [3] came out at 76.1%. Besides, the “change in SPR angle” value in assay [4] is on record as “approximately 0.05 degrees”.

Turning to `Oc1ccc(/C=C/c2cc(O)cc(O)c2)cc1` [trans-resveratrol], in assay [3], the “survival rate (number of cells, control = 100)” value stood at 56.2%. Also, the “change in SPR angle” value in assay [4] is reported as “approximately 0.05 degrees”.
